From patent US6589984B1, “Benzofurylpyrone derivatives” (Teijin Limited, priority 1998, dated 2003)

test system: Human hepatic cancer cells HepG2; assay: TG production inhibiting activity (14C-acetic acid incorporation into TG) in HepG2 cells; type: cell-based; conditions: Homo sapiens, HepG2; group criterion, alternatives: IC50 at least 10 μM and less than 100 μM, or at least 5% and less than 30% inhibition at 1 μM, or at least 30% and less than 50% inhibition at 10 μM
Outline: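 HepG2 cells cultured 6 days in eRDF with 10% bovine serum, then in serum-free eRDF given compound (diluted from 20 mM DMSO stock) plus 14C-acetic acid for one day at 37 °C, 5% CO2. Lipids extracted with hexane/isopropanol 2:1 and separated by TLC; the TG spot was cut out and counted by liquid scintillation.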

IC50, 10 to 100 µM:
Cc1c(-c2cc3cc(OCc4ccccc4[N+](=O)[O-])ccc3o2)oc(=O)c(C)c1O [Example 230, 3,5-dimethyl-4-hydroxy-6-(5-(2-nitrobenzyloxy)benzofuran-2-yl)-2H-pyran-2-one]
Cc1c(-c2cc3cc(OCc4ccccc4Cl)ccc3o2)oc(=O)c(C)c1O [Example 240, 6-(5-(2-chlorobenzyloxy)benzofuran-2-yl)-3,5-dimethyl-4-hydroxy-2H-pyran-2-one]
Cc1c(-c2cc3cc(N(C)C(=O)c4cccnc4)ccc3o2)oc(=O)c(C)c1O [Example 253, 3,5-dimethyl-4-hydroxy-6-(5-(N-methyl-N-(3-pyridylcarbonyl)amino)benzofuran-2-yl)-2H-pyran-2-one]
Cc1c(-c2cc3cc(N(C)C(=O)C(C)C)ccc3o2)oc(=O)c(C)c1O [Example 254, 3,5-dimethyl-4-hydroxy-6-(5-(N-isobutyryl-N-methylamino)benzofuran-2-yl)-2H-pyran-2-one]
Cc1c(-c2cc3c(OCc4ccccc4)cccc3o2)oc(=O)c(C)c1O [Example 258, 6-(4-benzyloxybenzofuran-2-yl)-3,5-dimethyl-4-hydroxy-2H-pyran-2-one]

same assay, conditions: Homo sapiens, HepG2; group criterion, alternatives: IC50 less than 10 μM, or at least 30% inhibition at 1 μM, or at least 50% inhibition at 10 μM

IC50, < 10 µM:
COc1cccc(COc2ccc3oc(-c4oc(=O)c(C)c(O)c4C)cc3c2)c1 [Example 236, 3,5-dimethyl-4-hydroxy-6-(5-(3-methoxybenzyloxy)benzofuran-2-yl)-2H-pyran-2-one]
Cc1c(-c2cc3cc(OCc4cccc(Cl)c4)ccc3o2)oc(=O)c(C)c1O [Example 242, 6-(5-(3-chlorobenzyloxy)benzofuran-2-yl)-3,5-dimethyl-4-hydroxy-2H-pyran-2-one]
Cc1c(-c2cc3cc(OCc4cncs4)ccc3o2)oc(=O)c(C)c1O [Example 243, 3,5-dimethyl-4-hydroxy-6-(5-(5-thiazolylmethoxy)benzofuran-2-yl)-2H-pyran-2-one]
CC(=O)Oc1c(C)c(-c2cc3cc(OCc4sc(Cl)nc4Cl)ccc3o2)oc(=O)c1C [Example 244, 4-acetyloxy-6-(5-(2,4-dichloro-5-thiazolylmethoxy)benzofuran-2-yl)-3,5-dimethyl-2H-pyran-2-one]
Cc1c(-c2cc3cc(OCc4ccsc4)ccc3o2)oc(=O)c(C)c1O [Example 246, 3,5-dimethyl-4-hydroxy-6-(5-(3-thienylmethoxy)benzofuran-2-yl)-2H-pyran-2-one]
Cc1c(-c2cc3cc(OCc4cocn4)ccc3o2)oc(=O)c(C)c1O [Example 249, 3,5-dimethyl-4-hydroxy-6-(5-(4-oxazolylmethoxy)benzofuran-2-yl)-2H-pyran-2-one]
Cc1c(-c2cc3cc(N(C)C(=O)c4ccccc4)ccc3o2)oc(=O)c(C)c1O [Example 250, 6-(5-(N-benzoyl-N-methylamino)benzofuran-2-yl)-3,5-dimethyl-4-hydroxy-2H-pyran-2-one]
Cc1c(-c2cc3cc(N(C)C(=O)Cc4ccccc4)ccc3o2)oc(=O)c(C)c1O [Example 251, 3,5-dimethyl-4-hydroxy-6-(5-(N-methyl-N-(phenylacetyl)amino)benzofuran-2-yl)-2H-pyran-2-one]
Cc1c(-c2cc3cc(N(C)C(=O)c4cccs4)ccc3o2)oc(=O)c(C)c1O [Example 252, 3,5-dimethyl-4-hydroxy-6-(5-(N-methyl-N-(2-thienylcarbonyl)amino)benzofuran-2-yl)-2H-pyran-2-one]
Cc1c(-c2cc3cc(N(C)C(=O)OC(C)(C)C)ccc3o2)oc(=O)c(C)c1O [Example 255, 6-(5-(N-(t-butoxycarbonyl)-N-methylamino)benzofuran-2-yl)-3,5-dimethyl-4-hydroxy-2H-pyran-2-one]
CC(=O)Oc1c(C)c(-c2cc3cc(OS(=O)(=O)C(F)(F)F)ccc3o2)oc(=O)c1C [Example 257, 4-acetyloxy-3,5-dimethyl-6-(5-trifluoromethanesulfonyloxybenzofuran-2-yl)-2H-pyran-2-one]
